Data from patent US11077052B1, “Selected multi-phase treatment for coronavirus respiratory infections” (priority 2020, dated 2021).

How the values were obtained:
Assay type in all cases: in vivo, human
SARS-CoV-2 [1] = experiment: Nasal irrigation with the Example 1 composition in people during the COVID-19 pandemic, judged by symptoms; details: added to the Example 1 composition
SARS-CoV-2 [2] = experiment: Inhalation of the smelling salt by patients during the COVID-19 pandemic; details: liquid CBD added
Description: In another formula, in addition to the herbal infused alcohols and concentrated herbal extracts, liquid CBD was also added. […] Apparently, CBD has synergistic effect with the probiotic produced volatile therapeutic compounds. Towards the end of preparation, the multiple strain probiotics along with their bio-active peptides and volatile therapeutic growth end products were add to the formula. The above prepared formulas were placed in a plastic or glass container with a tight closure or in a cartridge with screw type closure. Prior to inhalation, the cap is removed and, using one nostril at a time, it is inhaled deeply to reach the bottom of each and every alveoli of the lung. Conversely, the composition can also be applied using a standard nebulizer with proper liquefaction of the ingredients using a suitable solvent such as water.
The preparation was tried on patients of all age groups and genders ranging from 5 years to 75 years. They were asked to inhale once in the morning and once in the evening if they are at home or office. If they have to go to public places or a crowded place, they were asked to inhale before and after visiting the place. […]
In addition to the ingredients listed in Table 3, further testing evaluated the addition of a minimal amount of ammonium carbonate. In another composition, sodium hypochlorite has been replaced by a minimal quantity of liquid chloroform. […]

SARS-CoV-2 [3] = experiment: Oral probiotics liposome in test subjects and COVID-19 patients; details: acute cases of COVID-19
Source text: Recommended daily dosages for the above prepared liquid antioxidant liposome are one dose of 1 ounce or two doses of one-half ounce each. This preparation was given to several test subjects of all ages who were monitored for coronavirus infection over a period of 5.5 months during the coronavirus pandemic period (February through middle of August 2020). […] In addition, the above preparation was given to a patient who had been infected with COVID-19. This patient recovered quickly, within one to two weeks.
The liposome also was evaluated with variations of ingredients to identify which appeared to provide the better effectiveness. The standard for comparison had the liposome prepared with, herbal extracts, CBD, ascorbic acid, sodium bicarbonate, and sodium ascorbate. However, the probiotics were not included. A first test version had the liposome prepared with ascorbic acid and herbal extracts only, without sodium ascorbate, sodium bicarbonate, CBD, and probiotics. A second test version had the liposome prepared with concentrated herbal extracts of clove, turmeric, and basil in combination with ascorbic acid and sodium ascorbate along with multiple probiotics strain, but without inclusion of their all other immunomodulins and growth end products. […]

C=C(C)[C@@H]1CCC(C)=C[C@H]1c1c(O)cc(CCCCC)cc1O [CBD, Cannabidiol]
effect of inclusion in the nasal irrigation formulation (SARS-CoV-2 [1]): significantly improved the nasal clearance
effect of addition on efficacy of the inhaling smelling salt (SARS-CoV-2 [2]): significantly improved the efficacy
effect of CBD in the liposome on recovery (SARS-CoV-2 [3]): significantly improved the recovery
